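Compound exposure: 48 hours, 5 concentrations, 96-well plates. GI50: concentration for 50% inhibition of growth.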 Active and inactive are the calls of the source. Cut-off read from the data, not from the text of the source: active = GI50 up to about 1.1 µM and inactive = higher.
Legend:
Test in all cases: NCI tumour cell line growth inhibition, 48 h
[1] = system: SNB-75
[2] = system: A498
[3] = system: SF-268
[4] = system: HCC 2998
[5] = system: EKVX
[6] = system: IGROV-1
[7] = system: UO-31
[8] = system: SK-MEL-5
[9] = system: HOP-18
[10] = system: HCT-116
[11] = system: UACC-257
[12] = system: NCI-H226
[13] = system: ACHN
[14] = system: MOLT-4
[15] = system: MDA-MB-435
[16] = system: MCF7
[17] = system: NCI/ADR-RES
[18] = system: PC-3
[19] = system: BT-549
[20] = system: OVCAR-3

Measured: GI50

CCOC(=O)C(/C(=N\NC(=O)OC)C(=O)Nc1cc(OC)ccc1OC)c1cnc2ccccc2n1 (stereo not given)
inactive: [1] > 100 µM | [2] > 100 µM | [3] > 100 µM | [4] > 100 µM | [5] > 100 µM | [6] > 100 µM | [7] > 100 µM | [8] > 100 µM | [9] 85.9 µM | [10] > 100 µM | [11] > 100 µM | [12] > 100 µM | [13] > 100 µM

CCCCNC(=S)OCCC(C)CCCC(C)C (stereo not given)
inactive: [1] 35.3 µM | [2] > 100 µM | [3] > 100 µM | [4] > 100 µM | [5] > 100 µM | [14] > 100 µM | [6] > 100 µM | [7] > 100 µM | [8] > 100 µM | [9] > 100 µM | [10] > 100 µM | [11] > 100 µM | [13] > 100 µM

CCOC(=O)/C=C\[C@H]1OC(C)(C)O[C@H]1[C@H](O)[C@H]1COC(C)(C)O1
inactive: [15] 17.3 µM | [1] 2.57 µM | [2] 16.6 µM | [3] 25.4 µM | [4] 11.3 µM | [16] 20.8 µM | [5] 21.1 µM | [14] 19.2 µM | [6] 19.5 µM | [17] 32.5 µM | [7] 18.4 µM | [18] 20.7 µM | [8] 18.2 µM | [19] 22 µM | [10] 19.7 µM | [20] 17.4 µM | [11] 22.6 µM | [12] > 100 µM | [13] 16.3 µM

Cc1cc(Cl)ccc1NC(=O)C(=O)Cc1nc2ccc(C(=O)c3ccccc3)cc2nc1O
inactive: [1] > 100 µM | [3] > 100 µM | [4] > 100 µM | [5] > 100 µM | [14] 46.8 µM | [6] > 100 µM | [7] 78.7 µM | [8] 79.6 µM | [9] > 100 µM | [10] > 100 µM | [20] > 100 µM | [11] > 100 µM | [12] 64.7 µM | [13] > 100 µM

CC(C)OC(=O)c1cc(NC(=S)OC(C)C)ccc1Cl
inactive: [15] 17.1 µM | [1] 19.6 µM | [2] 25.9 µM | [3] 26.9 µM | [4] > 41.6 µM | [16] 20.9 µM | [5] 7.8 µM | [14] 11.9 µM | [6] 28.8 µM | [17] 20.7 µM | [7] 20.8 µM | [18] 23.7 µM | [8] 17.3 µM | [19] 18.2 µM | [10] 20.8 µM | [20] 25.6 µM | [11] 21.1 µM | [12] 18.3 µM | [13] 22.8 µM

O=C(CN1CCN(c2cccc(Cl)c2)CC1)N1CCc2c([nH]c3ccccc23)C1c1cccnc1 (stereo not given)
inactive: [1] 7.62 µM | [2] 20.5 µM | [3] 13.1 µM | [4] 5.24 µM | [5] 16.8 µM | [14] 2.54 µM | [6] 22.4 µM | [7] 4.1 µM | [8] 11.9 µM | [9] 33.2 µM | [10] 4.5 µM | [20] 15.5 µM | [11] 5.41 µM | [13] 8.87 µM

CSc1cc(N)ccc1/N=N/c1ccc(S(N)(=O)=O)cc1
inactive: [15] 27.4 µM | [1] 15.5 µM | [2] 48 µM | [3] 37.8 µM | [4] 53.6 µM | [16] 37.3 µM | [5] 31 µM | [14] 31.3 µM | [6] 23.1 µM | [17] 29.6 µM | [7] 16.5 µM | [18] 32.7 µM | [8] 15.3 µM | [19] 6.4 µM | [10] 30.5 µM | [20] 25.1 µM | [11] 80 µM | [12] 13.2 µM | [13] 27.2 µM

O=C1C=CC(=O)c2c(O)c(N(CCCl)CCCl)c(Cl)c(O)c21
inactive: [15] 4.31 µM | [1] 7.8 µM | [2] 6.15 µM | [3] 5.46 µM | [4] > 8.91 µM | [16] 5.07 µM | [5] > 8.91 µM | [14] > 5.31 µM | [6] > 6.68 µM | [17] 6.89 µM | [7] > 5.75 µM | [18] 5.47 µM | [8] 4.59 µM | [19] 4.15 µM | [10] 4.26 µM | [20] 4.74 µM | [11] 3.3 µM | [12] > 9.66 µM | [13] 4.13 µM
